pIC50: −log10 of the molar value. Counter-ions that a name gives are not always drawn.
Columns and labels:
[1] = system: B16-F1 cells; assay: Evaluation of antitumor effect in syngeneic mouse model bearing mouse melanoma cell line B16-F1; format: in vivo; settings: po, 240 h, C57BL/6J mice bearing B16-F1, read-out: Antitumor effect (relative tumor growth inhibition); for inhibition in vivo at 0.03 mg/kg: 0.03 mg/kg orally once daily for 10 days; for inhibition in vivo at 0.3 mg/kg: 0.3 mg/kg orally once daily for 10 days
Protocol: Test Example 3: Evaluation of Antitumor Effect in Syngeneic Mouse Model Bearing Mouse Melanoma Cell Line B16-F1
A cell suspension liquid prepared by suspending B16-F1 cells (ATCC, CRL-6323) in PBS at 2.0×10^6 cells/mL was subcutaneously inoculated into 5-week-old female mice (C57BL/6J from Charles River Laboratories Japan, Inc.) in a volume of 50 μL. 5 days after the inoculation, the mice were grouped in such a manner that there was substantially no difference in tumor volume between groups, and administration of the test compound was started. The test was conducted with a solvent group and a test compound administration group each having 10 mice. 0.5% methylcellulose (Shin-Etsu Chemical Co., Ltd.) was orally administered to the solvent group, and 0.5% methylcellulose mixed with the test compound was orally administered to the test compound administration group. The administration was performed for 10 days once daily, and the tumor diameter and the body weight were measured twice a week. The following expression was used for calculation of the tumor volume.
[tumor volume (mm^3)]=[tumor major diameter […]]×[tumor minor diameter (mm)]^2×0.5
The relative tumor growth inhibition (%) of the test compound was calculated, where the tumor volume of the solvent group immediately before the start of administration was set to 100% inhibition, and the tumor volume of the solvent group on the day after the last administration was set to 0% inhibition. […] In the table, Ex represents the number of each Example described below.

[2] = target: human recombinant DGK ξ (Homo sapiens (Human), UniProt Q13574); assay: Evaluation of DGK ξ inhibitory effect (ADP-Glo Kinase Assay); format: biochemical; settings: ADP-Glo luminescence
Protocol: Test Example 1. Evaluation of DGK ξ Inhibitory Effect
The inhibitory effect of a test compound on human recombinant DGK ξ (Cama Biosciences, Inc., 12-410-20N) was examined by the following method in which detection is performed with ADP-Glo™ Kinase Assay (Promega Corporation).
To a 384-well plate (Greiner Bio-One Co., Ltd.), 3 μL of a DGK ξ enzyme dissolved in an assay buffer (40 mM Tris-HCl pH 7.5, 10 mM MgCl2, 1 mM dithiothreitol (DTT) and 0.1 mg/mL bovine serum albumin (BSA)) (90 ng/mL) was added, and 3 μL of the test compound diluted with the same assay buffer was added so that an intended final concentration was obtained. The mixture was left standing at room temperature for 15 minutes, 3 μL of a substrate (150 μM 1-oleoyl-2-acetyl-sn-glycerol (Sigma-Aldrich Co. LLC), 480 μM phosphatidylserine (Avanti, Inc.) and 150 μM UltraPure-ATP (attached to ADP-Glo)) was then added, and the mixture was left standing at room temperature for 30 minutes to react. Thereafter, 3 μL of an ADP-Glo Reagent was added, and the mixture was left standing at room temperature for 40 minutes to stop the enzyme reaction. Further, 6 μL of a Kinase-Detection Reagent was added, the mixture was left standing at room temperature for 30 minutes, and the luminescence was then measured using ARVO X3 (PerkinElmer, Inc.). The half maximal inhibitory concentration (IC50) was calculated by Sigmoid-Emax model non-linear regression analysis, where the signal value in solvent treatment was set to 0% inhibition and the signal value without addition of the DGK ξ enzyme was set to 100% inhibition. […] In the table. Ex represents the number of each Example described below.

[3] = system: IL-2 production in Jurkat E6.1 cells; assay: Evaluation of IL-2 production in human T-cell leukemia cell line Jurkat E6.1 (TCR stimulation anti-CD3/anti-CD28); format: cell-based; settings: Jurkat E6.1, 24 h, concentration at which IL-2 increased to 10 times the solvent control, Jurkat E6.1, anti-CD3/anti-CD28, 24 hours
Protocol: Test Example 2. Evaluation of Il-2 Production in Human T-Cell Leukemia Cell Line Jurkat E6.1
The effect of the test compound on the IL-2 production by T-cell receptor (TCR) stimulation (anti-CD3/anti-CD28) in Jurkat E6.1 cells (ECACC, 88042803) was evaluated.
A 5 μg/mL anti-CD3 antibody (eBioscience, Inc., OKT3 clone) diluted with phosphate buffer saline (PBS) was added to a 96-well plate (Iwaki & Co., Ltd.) at 50 μL/well, and left standing at 4° C. for 12 hours or more to provide an anti-CD3 antibody-coated plate in advance. When the plate was used for experiments, the plate was washed with 200 μL of PBS once, an anti-CD28 antibody (eBioscience, Inc., 28.2 clone) diluted to a concentration of 10 μg/mL with a culture medium (RPMI1640 (Sigma-Aldlich Co. LLC.) containing 10% fetal bovine serum (Hyclone Laboratories, Inc.)) was then added at 10 μL/well, and the plate was used for assay as a culture plate for TCR stimulation.
Subsequently, the test compound was mixed with Jurkat E6.1 cells in such a manner that an intended final concentration was obtained, and the mixture was plated at 90 μL/well so that the number of cells per well was 1×10^5(that is, finally the culture was performed at 1×10^5 cells/100 μL/well). For culture cell conditions, the culture was performed at 37° C. in the presence of 5% CO2 using RPMI1640 medium containing 10% fatal bovine serum.
After 24 hours, the culture supernatant was collected, and IL-2 was quantitatively determined using AlphaLISA human IL2 Immunoassay Research Kit (PerkinElmer, Inc.). The IL-2 measurement was performed under Alpha Screen standard setting conditions (the fluorescence intensity at 570 nm was measured with an excitation wavelength of 680 nm) using EnVision 2104-0010 and EnVision 2104-0020 (PerkinElmer, Inc.). The IL-2 quantitative value of the solvent treatment control was set to 1, and the test compound concentration at which the IL-2 quantitative value of the test compound treatment sample increased to 10 times the IL-2 quantitative value of the control (EC10fold) was calculated by inverse estimation with the aid of Sigmoid-Emax model non-linear regression analysis. […] In the table, Ex represents the number of each Example described below.

Chain of human recombinant DGK ξ (Q13574 whole entry): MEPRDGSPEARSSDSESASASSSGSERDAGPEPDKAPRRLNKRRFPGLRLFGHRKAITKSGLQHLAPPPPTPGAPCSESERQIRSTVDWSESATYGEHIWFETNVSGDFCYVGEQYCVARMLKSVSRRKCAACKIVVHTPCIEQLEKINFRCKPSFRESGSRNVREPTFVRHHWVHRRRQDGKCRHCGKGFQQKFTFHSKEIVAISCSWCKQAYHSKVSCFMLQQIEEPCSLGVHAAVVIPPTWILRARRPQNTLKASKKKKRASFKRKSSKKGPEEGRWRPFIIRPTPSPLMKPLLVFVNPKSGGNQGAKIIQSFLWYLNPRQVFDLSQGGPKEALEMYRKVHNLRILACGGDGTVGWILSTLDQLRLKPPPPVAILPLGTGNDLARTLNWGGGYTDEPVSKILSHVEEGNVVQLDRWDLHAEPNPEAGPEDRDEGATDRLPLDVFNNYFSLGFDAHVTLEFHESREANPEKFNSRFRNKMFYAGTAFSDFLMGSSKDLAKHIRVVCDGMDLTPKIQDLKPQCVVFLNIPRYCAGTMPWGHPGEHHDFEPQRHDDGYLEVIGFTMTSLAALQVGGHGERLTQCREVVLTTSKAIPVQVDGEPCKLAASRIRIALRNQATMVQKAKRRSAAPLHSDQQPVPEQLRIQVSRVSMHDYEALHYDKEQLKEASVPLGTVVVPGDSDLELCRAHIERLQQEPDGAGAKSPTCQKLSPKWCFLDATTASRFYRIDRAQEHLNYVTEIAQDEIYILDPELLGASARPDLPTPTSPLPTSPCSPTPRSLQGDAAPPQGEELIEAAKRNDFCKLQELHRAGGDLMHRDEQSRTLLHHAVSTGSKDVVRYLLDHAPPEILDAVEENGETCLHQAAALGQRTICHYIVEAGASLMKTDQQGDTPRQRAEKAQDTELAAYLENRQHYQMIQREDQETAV

| SMILES | inhibition in vivo at 0.03 mg/kg [1] | pIC50 [2] | inhibition in vivo at 0.3 mg/kg [1] | EC (10-fold increase) [3] |
| --- | --- | --- | --- | --- |
| NC[C@]1(F)CCCN(c2c(NC(=O)c3ccn(-c4ccnnc4)n3)ccc(Oc3ccccc3F)c2C(F)(F)F)C1 [Example 45] | 30% | 7.92 | – | – |
| CNC[C@H]1CN(c2c(NC(=O)c3ccn(-c4ccnnc4)n3)ccc(C3CCCC3)c2C(F)(F)F)CCN1C [Example 48] | – | 8.24 | 40% | – |
| CNC[C@H]1CN(c2c(NC(=O)c3ccn(-c4ccnnc4)n3)ccc(Oc3ccccc3F)c2Cl)CCN1C [Example 86, N-[3-chloro-4-(2-fluorophenoxy)-2-{(3S)-4-methyl-3-[(methylamino)methyl]piperazin-1-yl}phenyl]-1-(pyridazin-4-yl)-1H-pyrazole-3-carboxamide] | – | 8.54 | 31% | – |
| CN1CCN(c2c(NC(=O)c3ccn(CC(F)F)n3)ccc(Oc3ccccc3Cl)c2C(F)(F)F)C[C@@H]1CN [Example 13] | – | 7.74 | 36% | 0.34 µM |
| N[C@@H]1CCN2CCN(c3c(NC(=O)c4coc(-c5ccnnc5)n4)ccc(Oc4ccccc4F)c3C(F)(F)F)C[C@@H]12 [Example 80] | – | 7.35 | 31% | 0.46 µM |
| CN1CCN(c2c(NC(=O)c3ccn(CC(F)F)n3)ccc(Oc3ccccc3Cl)c2Cl)C[C@@H]1CN [Example 20] | – | 7.70 | 33% | 0.036 µM |
| CNC[C@H]1CN(c2c(NC(=O)c3ccn(-c4ccnnc4)n3)ccc(Oc3ccccc3F)c2C(F)(F)F)CCN1C [Example 29, N-[4-(2-fluorophenoxy)-2-{(3S)-4-methyl-3-[(methylamino)methyl]piperazin-1-yl}-3-(trifluoromethyl)phenyl]-1-(pyridazin-4-yl)-1H-pyrazole-3-carboxamide] | – | 8.00 | 41% | – |
| NC[C@@H]1CCCN(c2c(NC(=O)c3ccn(CC(F)F)n3)ccc(Oc3ccccc3F)c2C(F)(F)F)C1 [Example 1, monohydrochloride] | 35% | – | – | 0.11 µM |
| CNC[C@@H]1CN(c2c(NC(=O)c3ccn(-c4ccnnc4)n3)ccc(Oc3ccccc3F)c2C(F)(F)F)CCN1C [Example 47] | – | 8.17 | 42% | – |
| CN1CCN(c2c(NC(=O)c3coc(-c4ccnnc4)n3)ccc(Oc3ccccc3F)c2C(F)(F)F)C[C@H]1CN [Example 55] | – | 7.92 | – | – |
| CN1CCN(c2c(NC(=O)c3ccn(-c4ccnnc4)n3)ccc(Oc3ccccc3F)c2C(F)(F)F)C[C@H]1CN [Example 54] | – | 7.92 | – | – |
| CNC[C@H]1CN(c2c(NC(=O)c3ccn(-c4ccnnc4)n3)ccc(Oc3ccccc3Cl)c2C(F)(F)F)CCN1C [Example 87] | – | 8.39 | – | – |
| NC[C@@H]1CCCN(c2c(NC(=O)c3ccn(-c4ccnnc4)n3)ccc(OC3CC3)c2-c2ccccc2)C1 [Example 63] | – | 7.15 | – | – |
